The data set is described as follows: method code SF-AS, from Dearden, C.; O'Hara, H. (1978). Partition coefficients of some alkyl derivatives of 4-acetamidophenol. Eur J Med Chem, 13(5)415-419.

A word on the logP: it is the decadic logarithm of the partition coefficient of the neutral form, usually between octanol and water. A higher logP goes with a more lipophilic compound. Compound `CC(=O)Nc1cc(C(C)(C)C)c(O)c(C(C)(C)C)c1` registered a lipophilicity (logP) of 3.18.

In the case of `CCc1cc(NC(C)=O)ccc1O`, the lipophilicity (logP) stood at 1.31.

`CC(=O)Nc1ccc(O)c(C)c1`: the logP came to 0.79.

With `CC(=O)Nc1c(C)cc(O)c(C)c1C`, the logP is 0.75.

Turning to `CC(=O)Nc1c(C)c(C)c(O)c(C)c1C`, the logP came out at 0.95.

Compound `CC(=O)Nc1cc(C)c(O)c(C)c1C` registered a lipophilicity (logP) of 0.82.

Turning to `CCc1cc(NC(C)=O)cc(CC)c1O`, the log partition coefficient (logP) came to 1.87.

Compound `CC(=O)Nc1ccc(O)cc1C` yielded a logP of 0.17.

In turn, `CC(=O)Nc1ccc(O)c(C)c1C` gave a logP of 0.57.

Consider `CC(=O)Nc1ccc(O)c(C(C)C)c1`, for which the logP turned out to be 1.71.

Compound `CC(=O)Nc1cc(C)c(O)c(C)c1` yielded a lipophilicity (logP) of 1.11.

In the case of `CC(=O)Nc1ccc(O)c(C(C)(C)C)c1`, the logP was determined as 2.36.

Consider `CC(=O)Nc1c(C)cc(O)cc1C`, for which the logP worked out at 0.31.

As for `CC(=O)Nc1cc(C)c(O)cc1C`, the lipophilicity (logP) stood at 0.6.
